In US20190151346A1, “COMBINATIONS THERAPIES FOR THE TREATMENT OF CANCER” (INSERM (INSTITUTE NATIONAL DE LA SANTÉ ET DE LA RECHERCHE …, priority 2016, published 2019):

Assays:
Type in all cases: cell-based
[1] = test system: EGFR; assay: Immunofluorescence microscopy: localization of EGFR; conditions: MDA-MB468; 10 ng/ml, 2 hours; FIG. 4A, FIG. 7
Experimental: (§1) BT20 and MDA-MB468 triple negative (HER2-, ER-, PR-) were obtained from American Type Culture Collection (ATCC N°HTB19, and ATCC N°HTB132, respectively). The LumB, and Her2-, ER-, PR-negative IJG-1731 cell line was previously established at the laboratory as described (Mombelli et al. Sci Rep. 2015 Jul. 8; 5:11874.) BT20 and IJG-1731 cells were grown in complete RPMI-1640 media with L-glutamine, supplemented with 10% fetal calf serum (FCS) and penicillin—streptomycin solution (100 μg/ml each) (Life technology, Saint-Aubain, France). MDA-MB468 cells were grown in a complete DMEM-F12 media with glutamine, 10% FCS and penicillin—streptomycin. All cells were maintained in a humidified 5% CO2 atmosphere at 37° C. All experiments were conducted with cells at confluency and starved for an overnight.
Cells (4.10^3) were grown on Lab-Tek chambers slide in their respective complete culture medium for 24 hours then starved for an overnight. Cells were then stimulated with IL-17E (long/ml), EGF (10 ng/ml) or a combination of both for 2 hours at 37° C., washed, and fixed with 4% paraformaldehyde (PFA)-PBS solution at 4° C. […] Slides were mounted with mounting medium containing Dapi then visualized with a Leica DMRB fluorescence microscope and images analysis was performed with the Archimed Software (Microvision).

[2] = test system: STAT3; assay: Cellular fractionation and Western blotting: STAT3 and pSTAT3 translocation to the nucleus; conditions: MDA-MB468 fractions
Experimental: as §1
Cells (3×10^5) were seeded in 6-well plates in complete medium for 24 hours then starved for another overnight. Cells were stimulated for 2 hours at 37° C. with IL-17E (10 ng/ml), EGF (long/ml), or a combination of both as indicated. Cells were then washed with PBS and lysed in a lysis buffer (HEPES 10 mM, MgCl2 15 mM KCl 10 mM, DTT 0.5 mM, PMSF 0.2 mM, 1 mM Na3VO4, 10 mM NaF, 0.5% Nonidet P-40). […] Protein concentrations were determined by using Bradford method. […]

[3] = test system: Src; assay: Tyrosine phosphorylation by Western blotting: Src phosphorylation in TNBC cell lines
Experimental: as §1
(§2) Cells (3×10^5) were seeded in 6-well plates in complete medium for 24 hours then starved for another overnight. Cells were then stimulated with IL-17E (10 ng/ml), EGF (10 ng/ml), or a combination of both for 30 min in serum-free medium. Cells were then lysed in 1% Triton X100 buffer and left on ice for 1 hours. Protein samples were then subjected to 8% SDS-PAGE. Western blotting using specific antibodies assessed then the phosphorylation of the various kinases.

[4] = test system: EGFR; assay: Tyrosine phosphorylation by Western blotting: EGFR phosphorylation in TNBC cell lines; conditions: for IL-17E- and EGF-induced phosphorylation of Y1086 EGFR: AZM475271 10 μM pre-treatment, FIG. 2A
Experimental: BT20 and MDA-MB468 triple negative (HER2-, ER-, PR-) were obtained from American Type Culture Collection (ATCC N°HTB19, and ATCC N°HTB132, respectively). […] MDA-MB468 cells were grown in a complete DMEM-F12 media with glutamine, 10% FCS and penicillin—streptomycin. All cells were maintained in a humidified 5% CO2 atmosphere at 37° C. All experiments were conducted with cells at confluency and starved for an overnight.
as §2

Compound | translocation of EGFR (immunofluorescence) [1] | phosphorylation of STAT3α and β [2] | phosphorylation of Src at Y416 at suboptimal concentrations ([3]; MDA-MB468, IL-17E 1 ng/ml alone or EGF 0.1-1 ng/ml alone, FIG. 3) | IL-17E- and EGF-induced phosphorylation of Y1086 EGFR ([4]; IJG-1731 and BT20 cell lines) | IL-17E- and EGF-induced phosphorylation of Y1086 EGFR ([4]; MDA-MB468) | EGFR activation downstream IL-17E or IL-17B ([4]; TNBC cells, Src specific inhibitor, discussion, FIG. 6) | IL-17E- and EGF-induced Src phosphorylation ([3]; TNBC cell lines pre-treated with AZM475271 (10 μM), then stimulated with IL-17E or EGF (10 ng/ml), FIG. 2A)
EGF: epidermal growth factor, EGFR ligand used as stimulus (NSDSECPLSHDGYCLHDGVCMYIEALDKYACNCVVGYIGERCQYRDLKWWELR; Epidermal growth factor; UniProt P01133 971-1023, looked up) | induced strong translocation of EGFR from the membrane to the nucleus | induced the phosphorylation | failed to induce any significant phosphorylation | – | – | – | –
COc1ccc(Cl)c(Nc2ncnc3cc(OCC4CCN(C)CC4)c(OC)cc23)c1 [AZM475271] | – | – | – | abolished | to a lesser extent | inhibition | inhibited
